Measurements: US7728043B2, “Methods for treatment of beta-amyloid protein-induced ocular disease” (priority 1999, dated 2010)

Assays:
HUVEC cells = test: MTT reduction assay, βA peptide-induced toxicity, HUVEC cells; assay type: cell-based, human
Procedure: (§1) The degree of βA insult was measured by 3-[4,5-dimethylthiazol-2-yl]-2,5-diphenyltetrazolium bromide (MTT) reduction assay. […] The detection of cell growth or cell death can be determined by observing the conversion of MTT to the colored product, MTT formazan, the concentration of which can be measured […] at 550 nm.
(§2) Cells were incubated in MTT solution (5 mg/ml) at 37° C. for 2 hours. During this time, cells were observed under a microscope every 15 min. Cells were incubated in Lysing buffer (100 μl) overnight at 37° C. Colorimetric determination of MTT reduction was made at 550 nm.
(§3) PC12 rat pheochromocytoma and IMR32 human neuroblastoma cells were obtained from the American Type Culture Collection (ATCC). HUVEC normal umbilical human vein endothelial cells were obtained from Clonetics (San Diego, Calif.). Cells were routinely cultured on a tissue culture plate (Corning, N.Y., N.Y.). PC12 cells were grown in high glucose Dulbecco's Modified Eagle Medium (DMEM), 10% horse serum, 5% fetal calf serum, and 1% penicillin/streptomycin. IMR32 cells were grown in 90% DMEM and 10% fetal calf serum with 1% penicillin/streptomycin. HUVEC cells were grown in EGM-2 Bullet Kit (Clonetics, San Diego, Calif.).

IMR32 cells = test: MTT reduction assay, βA peptide-induced toxicity, IMR32 cells; assay type: cell-based, human
Procedure: as §1, §2, §3

[1] = tested on: cells treated with βA peptide; test: Protection of cells from βA peptide insult, statements in words (MTT assay, cells not singled out); assay type: cell-based; settings: MTT reduction assay; PC12, IMR32, HUVEC cells where named in the sentence
Procedure: as §1, §2

PC12 cells = test: MTT reduction assay, βA peptide-induced toxicity, PC12 cells; assay type: cell-based, rat
Procedure: as §1, §2, §3
PC12 cells were cultured routinely on polystyrene-coated Corning tissue culture plates. […] The 96-well plates were coated with rat tail collagen (Boehringer Mannheim) in order to promote uniform PC12 cell attachment and growth.

[2] = Antioxidant assay, scavenging of DPPH free radicals; settings: for Antioxidant IC50: Table 2, synthesized curcuminoids, DPPH; for Antioxidant activity (DPPH free radical scavenging), in words: optical density change of DPPH radicals at 515 nm
Procedure: Kim et al., Neurosci Lett 303, 57 (2001) and Barik et al., Free Radic Biol Med 39, 811 (2005).
Using an antioxidant assay, the antioxidant potency of the compounds of the invention was evaluated. 1,1-Diphenyl-2-picrylhydrazyl (DPPH) is known to generate stable free radicals in aqueous and ethanolic solutions. The ability of the compounds of the invention to scavenge these free radicals was measured by observing the optical density change of DPPH radicals at 515 nm. Kim et al., Neurosci Lett 303, 57 (2001) and Barik et al., Free Radic Biol Med 39, 811 (2005).
The samples were prepared in various concentrations (200, 20, 2.0, and 0.2 μg/ml) by serial dilution of a stock solution (5 mg/ml) and were tested by the following procedure. Reaction mixtures containing test compounds (dissolved in DMSO) and 300 μM DPPH ethanolic solution in 96-well microtiter plates were incubated at 37° C. for 30 min. and absorbance was measured at 515 nm. Percent inhibition by sample treatment was determined by comparison with a DMSO-treated […] control group. IC50 values were determined from percent inhibition by sample. IC50 values denote the concentration of the tested compound that was required to scavenge 50% of the DPPH free radicals.

[3] = Table 2, synthesized curcuminoids
[4] = Table 3, ginger-derived natural product compounds

| Structure (SMILES) | Protection of cells from βA peptide-induced toxicity, in words [1] | Anti-βA peptide(1-42) ED50 IMR32 (IMR32 cells; [3]) | Anti-βA peptide(25-35) ED50 IMR32 (IMR32 cells; [3]) | Anti-βA peptide(1-42) ED50 PC12 (PC12 cells; [3]) | Anti-βA peptide(25-35) ED50 PC12 (PC12 cells; [3]) | Antioxidant IC50 [2] | Anti-βA peptide(1-42) ED50 HUVEC (HUVEC cells; [4]) | Anti-βA peptide(25-35) ED50 HUVEC (HUVEC cells; [4]) | Anti-βA peptide(25-35) ED50 IMR32 (IMR32 cells; [4]) | Anti-βA peptide(1-42) ED50 PC12 (PC12 cells; [4]) | Anti-βA peptide(25-35) ED50 PC12 (PC12 cells; [4]) | Antioxidant activity (DPPH free radical scavenging), in words [2] | other results |
| --- | --- | --- | --- | --- | --- | --- | --- | --- | --- | --- | --- | --- | --- |
| CC(C)(C)[C@]1(O)CC2OC(=O)CC23C(=O)OC2OC(=O)[C@H](O)C231 (single isomer, unassigned; (-)) [(−)-Bilobalide, reference compound] | do not possess biological activity | – | – | – | – | – | – | – | – | – | – | – | Anti-βA peptide(1-42) ED50 HUVEC (HUVEC cells; Table 4, ginkgo compounds): toxic; Anti-βA peptide(25-35) ED50 HUVEC (HUVEC cells; Table 4, ginkgo compounds): toxic; Anti-βA peptide(1-42) ED50 IMR32 (IMR32 cells; Table 4, ginkgo compounds): toxic; Anti-βA peptide(25-35) ED50 IMR32 (IMR32 cells; Table 4, ginkgo compounds): toxic; Anti-βA peptide(1-42) ED50 PC12 (PC12 cells; Table 4, ginkgo compounds): toxic; Anti-βA peptide(25-35) ED50 PC12 (PC12 cells; Table 4, ginkgo compounds): toxic |
| O=C(CCc1ccccc1)CC(=O)CCc1ccc(O)cc1 [Compound 7] | cytotoxic | toxic | toxic | toxic | toxic | >200 µg/mL | – | – | – | – | – | – | – |
| O=C(C=C(O)C=Cc1ccccc1)CCc1ccc(O)cc1 [Compound 8] | cytotoxic | toxic | toxic | toxic | toxic | >200 µg/mL | – | – | – | – | – | – | – |
| O=C(CCc1ccc(O)cc1)CC(=O)CCc1ccc(O)cc1 [Compound 9] | protected | 11.0 µg/mL | 12.0 µg/mL | 9.0 µg/mL | 10.0 µg/mL | >200 µg/mL | – | – | – | – | – | – | – |
| COc1ccc(/C=C/C(=O)CC(=O)CCc2ccc(O)cc2)cc1 [Compound 10] | cytotoxic | toxic | toxic | toxic | toxic | >200 µg/mL | – | – | – | – | – | – | – |
| CCC/C=C/C(=O)CCc1ccc(O)c(OC)c1 [Compound 11] | effectively protected | – | – | – | – | – | 20 µg/mL | 20 µg/mL | 15 µg/mL | 12 µg/mL | 15 µg/mL | None of these compounds exhibited significant antioxidant activity | – |
| CCCCC/C=C/C(=O)CCc1ccc(O)c(OC)c1 [Compound 12] | effectively protected | – | – | – | – | – | 18 µg/mL | 20 µg/mL | 8.0 µg/mL | 10 µg/mL | 9.0 µg/mL | None of these compounds exhibited significant antioxidant activity | – |
| CCCCCCCC/C=C/C(=O)CCc1ccc(O)c(OC)c1 [Compound 13, [9]-shogaol] | effectively protected | – | – | – | – | – | 8.0 µg/mL | 8.0 µg/mL | 2.0 µg/mL | 4.0 µg/mL | 3.0 µg/mL | None of these compounds exhibited significant antioxidant activity | – |
| CCCCCC/C=C\CCCCCCCc1cccc(O)c1C(=O)O [Compound 15] | protect | – | – | – | – | – | – | – | – | – | – | do not possess antioxidant properties | Anti-βA peptide(1-42) ED50 HUVEC (HUVEC cells; Table 4, ginkgo compounds): 1.5 µg/mL; Anti-βA peptide(25-35) ED50 HUVEC (HUVEC cells; Table 4, ginkgo compounds): 5.0 µg/mL; Anti-βA peptide(1-42) ED50 IMR32 (IMR32 cells; Table 4, ginkgo compounds): 2.5 µg/mL; Anti-βA peptide(25-35) ED50 IMR32 (IMR32 cells; Table 4, ginkgo compounds): 3.5 µg/mL; Anti-βA peptide(1-42) ED50 PC12 (PC12 cells; Table 4, ginkgo compounds): 2.0 µg/mL; Anti-βA peptide(25-35) ED50 PC12 (PC12 cells; Table 4, ginkgo compounds): 3.0 µg/mL |
| CCCCCCCCCCC(=O)CCc1ccc(O)c(OC)c1 [Compound 45, [9]-dihydroshogaol] | effectively protected | – | – | – | – | – | – | – | – | – | – | – | – |
